Measurements taken from PubChem BioAssay (NCI).
Where “and” joins values, the source holds several entries; their conditions need not be identical. Equal entries are not always repeated.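 Growth conditions: 96-well plates. Treatment: test compound, 48 hours, 5 concentrations. Analysis: linear interpolation between bracketing concentrations; unreached endpoints set to highest concentration. GI50: concentration for 50% inhibition of growth. TGI denotes the concentration required for complete inhibition of growth.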

Tests used:
Assay in all cases: DTP human tumour cell line panel, 48 h
HCC-2998 colon = system: HCC-2998 colon
HOP-62 NSCLC = system: HOP-62 NSCLC
OVCAR-4 ovarian = system: OVCAR-4 ovarian
MDA-MB-231 breast = system: MDA-MB-231 breast
T-47D breast = system: T-47D breast
SR leukemia = system: SR leukemia
UACC-62 melanoma = system: UACC-62 melanoma
MOLT-4 leukemia = system: MOLT-4 leukemia
SNB-19 CNS = system: SNB-19 CNS
786-0 renal = system: 786-0 renal

SMILES	GI50 (HCC-2998 colon) [µM]	TGI (HCC-2998 colon) [µM]	GI50 (HOP-62 NSCLC)	TGI (HOP-62 NSCLC) [µM]	GI50 (OVCAR-4 ovarian) [µM]	TGI (OVCAR-4 ovarian)	GI50 (MDA-MB-231 breast) [µM]	TGI (MDA-MB-231 breast) [µM]	GI50 (T-47D breast) [µM]	TGI (T-47D breast) [µM]	GI50 (SR leukemia) [µM]	TGI (SR leukemia) [µM]	GI50 (UACC-62 melanoma) [µM]	TGI (UACC-62 melanoma) [µM]	GI50 (MOLT-4 leukemia) [µM]	TGI (MOLT-4 leukemia)	GI50 (SNB-19 CNS) [µM]	TGI (SNB-19 CNS) [µM]	GI50 (786-0 renal) [µM]	TGI (786-0 renal)
COc1ccc(/C(=C(\c2ccccc2)[N+](=O)[O-])c2ccc(OCCN3CCCC3)cc2)cc1	4.16	15.5	1.89 µM	4.94	4.66	16.7 µM	2.76	6.98	1.06	15.2	1.49	5.05	1.93	4.24	2.65	10.5 µM	5.61	18.6	1.64	3.27 µM
CC/C(=C/c1ccc(OC)cc1)[N+](=O)[O-]	1.89	3.42	2.23 µM	5.89	3.15	12.1 µM	2.31	4.9	1.82	5.95	2.31	7.65	2.04	4.67	2.7	7.3 µM	2.77	7.93	1.7	3.14 µM
CCCCCn1sc(=O)n(Cc2ccc(CNC(=O)C(C)c3ccc(CC(C)C)cc3)cc2)c1=O (stereo unspecified)	1.87	3.42	1.41 µM	3.35	0.999	2.42 µM	1.18	2.46	1.6	4.05	0.452	5.77	1.3	2.62	0.848	> 22.5 µM	1.55	2.91	0.747	2.06 µM
Cc1ccc(C)c(N2CCN(c3ccncc3N)CC2)c1	15.7	31.8	26.9 µM	> 100	19.1	> 100 µM	14.3	36.9	3.23	30.3	15.6	52.6	13.9	30.8	25.6	91.2 µM	28.8	> 100	20.5	58.1 µM
CC1CCc2c(C(=O)Nc3ncc(Cc4cccc([N+](=O)[O-])c4)s3)csc2C1 (stereo unspecified)	1.51	> 100	0.795 µM	> 100	1.64	> 100 µM	1.03	> 100	0.653	> 100	0.176	> 100	0.373	> 100	0.575	> 100 µM	0.678	> 100	1.18	> 100 µM
C=C1C(C)C2C(Cc3ccccc3)NC(=O)C23C(OC(C)=O)C=CC(C)(O)C(=O)C(C)C/C=C/C3C1O (stereo unspecified)	> 500	> 500	0.0431 µM and 0.106 µM	–	10.4	99.8 µM and > 500 µM	0.193	> 220	5.14	> 357	–	> 289	29.4	> 285	17.9	78.3 µM and > 500 µM	0.474	–	2.05	56.2 µM and > 120 µM
O=C1c2ccc3c4c(ccc(c24)C(=O)N1CCCCO)C(=O)N(CCCCO)C3=O	1.91	10.5	2.53 µM	12.7	0.428	1.72 µM	2.9	97.9	2.54	7.26	0.745	21.5	0.726	2.28	1.92	12.5 µM	2.34	10.5	2.91	20.5 µM
Cc1cnc(C(=O)Nc2nc3ccc(S(=O)(=O)Nc4ccc(C(C)(C)C)cc4)cc3[nH]2)cn1	1.46	10.7	0.785 µM	18.8	1.46	17.3 µM	1.41	10.7	0.592	20.8	0.133	12.5	0.537	13	0.562	5.9 µM	0.591	13.7	0.552	13.7 µM
N#Cc1cnn(C(=O)c2nn(-c3ccc(Cl)cc3)cc2O)c1N	0.623	18	0.392 µM	17.4	0.456	37.4 µM	0.708	19.2	0.294	19.1	0.278	0.983	0.303	2.22	0.373	4.06 µM	0.443	> 60.5	0.658	16.3 µM
COc1ccc2c(c1O)[C@@]13CCCC=C1[C@@H](C2)N(C)CC3	–	> 100	–	> 100	–	> 100 µM	–	> 100	–	> 100	–	81.5	–	> 100	–	> 100 µM	–	> 100	–	> 100 µM
CCOC(=O)Nc1cc2c(c(N)n1)N=C(c1ccc(Cl)cc1Cl)CN2	–	2.6	–	19.8	–	39.7 µM	–	16.2	–	43.1	–	> 100	–	11.6	–	> 100 µM	–	23.2	–	18.5 µM
COc1cc(OC)c(/C=C/S(=O)(=O)Cc2ccc(OC)c(N)n2)c(OC)c1	< 0.0193	> 100	< 0.01 µM	> 100	0.0272	> 100 µM	< 0.0248	> 100	57.3	> 100	< 0.01	> 100	< 0.01	> 100	< 0.0214	> 100 µM	–	> 100	< 0.01	> 100 µM
